Assay results taken from patent publication US6737383B1, “Herbicidal oxadiazolidines” (priority 1999, dated 2004).

Columns and labels:
bedstraw = test: Test B pre/postemergence bedstraw; type: in vivo, Galium aparine
How it was run: (§1)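 Herbicidal effect was estimated by eye on a ten-point control scale after plants spent twelve to sixteen days in a greenhouse following soil or foliar treatment. Foliar sprays targeted plants at one to four leaves; all doses were formulated in a non-phytotoxic solvent with surfactant.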

blackgrass = test: Test B pre/postemergence blackgrass; type: in vivo, Alopecurus myosuroides
How it was run: as §1

surinam grass = test: Test B pre/postemergence surinam grass; type: in vivo, Brachiaria decumbens
How it was run: as §1

cocklebur = test: Test B pre/postemergence cocklebur; type: in vivo, Xanthium strumarium
How it was run: as §1

corn = test: Test B pre/postemergence corn; type: in vivo, Zea mays
How it was run: as §1

crabgrass = test: Test B pre/postemergence crabgrass; type: in vivo, Digitaria sanguinalis
How it was run: as §1

giant foxtail = test: Test B pre/postemergence giant foxtail; type: in vivo, Setaria faberii
How it was run: as §1

morningglory = test: Test B pre/postemergence morningglory; type: in vivo, Ipomoea hederacea
How it was run: as §1

pigweed = test: Test B pre/postemergence pigweed; type: in vivo, Amaranthus retroflexus
How it was run: as §1

rape = test: Test B pre/postemergence rape; type: in vivo, Brassica napus
How it was run: as §1

soybean = test: Test B pre/postemergence soybean; type: in vivo, Glycine max
How it was run: as §1

velvetleaf = test: Test B pre/postemergence velvetleaf; type: in vivo, Abutilon theophrasti
How it was run: as §1

wheat = test: Test B pre/postemergence wheat; type: in vivo, Triticum aestivum
How it was run: as §1

wild oat = test: Test B pre/postemergence wild oat; type: in vivo, Avena fatua
How it was run: as §1

purple nutsedge = test: Test B pre/postemergence purple nutsedge; type: in vivo, Cyperus rotundus
How it was run: as §1

[1] = Preemergence, Rate 62 g/ha, scale of 0 to 10 where 0 is no effect and 10 is complete control
[2] = Preemergence, Rate 125 g/ha, 0 is no effect, 10 is complete control
[3] = Preemergence, Rate 250 g/ha, scale 0 to 10, 0 is no effect, 10 is complete control
[4] = Preemergence, Rate 500 g/ha, scale of 0 to 10 where 0 is no effect and 10 is complete control
[5] = Rate 62 g/ha, Postemergence, scale of 0 to 10 where 0 is no effect and 10 is complete control
[6] = Rate 125 g/ha, Postemergence, scale 0 to 10
[7] = Rate 500 g/ha, Postemergence, scale 0 to 10

C=C(C)CCn1c(=O)on(C(=O)N(c2ccc(F)cc2)C(C)C)c1=O [Compound 199]
Bedstraw plant response rating (bedstraw; [1]): 0 | Bedstraw plant response rating (0 to 10 scale) (bedstraw; [2]): 0 | Bedstraw plant response rating (bedstraw; [3]): 0 | Plant response rating, Bedstraw (bedstraw; [4]): 0 | Bedstraw plant response rating (bedstraw; [5]): 0 | Bedstraw plant response rating (bedstraw; [6]): 0 | Plant response rating (0 to 10; 0 is no effect, 10 is complete control), Bedstraw (bedstraw; Rate 250 g/ha, Postemergence): 0 | Bedstraw plant response rating (bedstraw; [7]): 2 | Blackgrass plant response rating (blackgrass; [1]): 6 | Blackgrass plant response rating (0 to 10 scale) (blackgrass; [2]): 10 | Blackgrass plant response rating (blackgrass; [3]): 10 | Plant response rating, Blackgrass (blackgrass; [4]): 10 | Blackgrass plant response rating (blackgrass; [5]): 0 | Blackgrass plant response rating (blackgrass; [6]): 4 | Plant response rating (0 to 10; 0 is no effect, 10 is complete control), Blackgrass (blackgrass; Rate 250 g/ha, Postemergence): 9 | Blackgrass plant response rating (blackgrass; [7]): 9 | B. signalgrass plant response rating (surinam grass; [1]): 0 | B. signalgrass plant response rating (0 to 10 scale) (surinam grass; [2]): 1 | B. signalgrass plant response rating (surinam grass; [3]): 6 | Plant response rating, B. signalgrass (surinam grass; [4]): 9 | B. signalgrass plant response rating (surinam grass; [5]): 0 | B. signalgrass plant response rating (surinam grass; Rate 125 g/ha, Postemergence, scale 0 (no effect) to 10 (complete control)): 0 | Plant response rating, B. signalgrass (surinam grass; Rate 250 g/ha, Postemergence, scale 0 to 10, 0 is no effect, 10 is complete control): 0 | Cocklebur plant response rating (cocklebur; [1]): 0 | Cocklebur plant response rating (0 to 10 scale) (cocklebur; [2]): 0 | Cocklebur plant response rating (cocklebur; [3]): 0 | Plant response rating, Cocklebur (cocklebur; [4]): 0 | Cocklebur plant response rating (cocklebur; [5]): 0 | Cocklebur plant response rating (cocklebur; [6]): 0 | Plant response rating (0 to 10; 0 is no effect, 10 is complete control), Cocklebur (cocklebur; Rate 250 g/ha, Postemergence): 0 | Cocklebur plant response rating (cocklebur; [7]): 3 | Corn plant response rating (corn; [1]): 0 | Corn plant response rating (0 to 10 scale) (corn; [2]): 0 | Corn plant response rating (corn; [3]): 0 | Plant response rating, Corn (corn; [4]): 0 | Corn plant response rating (corn; [5]): 0 | Corn plant response rating (corn; [6]): 0 | Plant response rating (0 to 10; 0 is no effect, 10 is complete control), Corn (corn; Rate 250 g/ha, Postemergence): 0 | Corn plant response rating (corn; [7]): 0 | Crabgrass plant response rating (crabgrass; [1]): 6 | Crabgrass plant response rating (0 to 10 scale) (crabgrass; [2]): 6 | Crabgrass plant response rating (crabgrass; [3]): 10 | Plant response rating, Crabgrass (crabgrass; [4]): 10 | Crabgrass plant response rating (crabgrass; [5]): 0 | Crabgrass plant response rating (crabgrass; [6]): 2 | Plant response rating (0 to 10; 0 is no effect, 10 is complete control), Crabgrass (crabgrass; Rate 250 g/ha, Postemergence): 8 | Crabgrass plant response rating (crabgrass; [7]): 8 | Giant foxtail plant response rating (giant foxtail; [1]): 7 | Giant foxtail plant response rating (0 to 10 scale) (giant foxtail; [2]): 10 | Giant foxtail plant response rating (giant foxtail; [3]): 10 | Plant response rating, Giant foxtail (giant foxtail; [4]): 10 | Giant foxtail plant response rating (giant foxtail; [5]): 0 | Giant foxtail plant response rating (giant foxtail; [6]): 2 | Plant response rating (0 to 10; 0 is no effect, 10 is complete control), Giant foxtail (giant foxtail; Rate 250 g/ha, Postemergence): 2 | Giant foxtail plant response rating (giant foxtail; [7]): 7 | Morningglory plant response rating (morningglory; [1]): 0 | Morningglory plant response rating (0 to 10 scale) (morningglory; [2]): 0 | Morningglory plant response rating (morningglory; [3]): 0 | Plant response rating, Morningglory (morningglory; [4]): 0 | Morningglory plant response rating (morningglory; [5]): 4 | Morningglory plant response rating (morningglory; [6]): 4 | Plant response rating (0 to 10; 0 is no effect, 10 is complete control), Morningglory (morningglory; Rate 250 g/ha, Postemergence): 4 | Morningglory plant response rating (morningglory; [7]): 8 | Redroot pigweed plant response rating (pigweed; [1]): 7 | Redroot pigweed plant response rating (0 to 10 scale) (pigweed; [2]): 7 | Redroot pigweed plant response rating (pigweed; [3]): 10 | Plant response rating, Redroot pigweed (pigweed; [4]): 10 | Redroot pigweed plant response rating (pigweed; [5]): 0 | Redroot pigweed plant response rating (pigweed; [6]): 0 | Plant response rating (0 to 10; 0 is no effect, 10 is complete control), Redroot pigweed (pigweed; Rate 250 g/ha, Postemergence): 2 | Redroot pigweed plant response rating (pigweed; [7]): 6 | Rape plant response rating (rape; [1]): 0 | Rape plant response rating (0 to 10 scale) (rape; [2]): 0 | Rape plant response rating (rape; [3]): 0 | Plant response rating, Rape (rape; [4]): 0 | Rape plant response rating (rape; [5]): 0 | Rape plant response rating (rape; [6]): 0 | Plant response rating (0 to 10; 0 is no effect, 10 is complete control), Rape (rape; Rate 250 g/ha, Postemergence): 0 | Rape plant response rating (rape; [7]): 0 | Soybean plant response rating (soybean; [1]): 0 | Soybean plant response rating (0 to 10 scale) (soybean; [2]): 0 | Soybean plant response rating (soybean; [3]): 0 | Plant response rating, Soybean (soybean; [4]): 0 | Soybean plant response rating (soybean; [5]): 2 | Soybean plant response rating (soybean; [6]): 2 | Plant response rating (0 to 10; 0 is no effect, 10 is complete control), Soybean (soybean; Rate 250 g/ha, Postemergence): 7 | Soybean plant response rating (soybean; [7]): 7 | Velvetleaf plant response rating (velvetleaf; [1]): 0 | Velvetleaf plant response rating (velvetleaf; [3]): 0 | Plant response rating, Velvetleaf (velvetleaf; [4]): 0 | Velvetleaf plant response rating (velvetleaf; [5]): 0 | Velvetleaf plant response rating (velvetleaf; [6]): 0 | Plant response rating (0 to 10; 0 is no effect, 10 is complete control), Velvetleaf (velvetleaf; Rate 250 g/ha, Postemergence): 0 | Wheat plant response rating (wheat; [1]): 0 | Wheat plant response rating (wheat; [3]): 0 | Plant response rating, Wheat (wheat; [4]): 0 | Wheat plant response rating (wheat; [5]): 0 | Wheat plant response rating (wheat; [6]): 2 | Plant response rating (0 to 10; 0 is no effect, 10 is complete control), Wheat (wheat; Rate 250 g/ha, Postemergence): 3 | Wild oats plant response rating (wild oat; [1]): 0 | Wild oats plant response rating (wild oat; [3]): 4 | Plant response rating, Wild oats (wild oat; [4]): 7 | Wild oats plant response rating (wild oat; [5]): 0 | Wild oats plant response rating (wild oat; [6]): 0 | Plant response rating (0 to 10; 0 is no effect, 10 is complete control), Wild oats (wild oat; Rate 250 g/ha, Postemergence): 0 | Nutsedge plant response rating (purple nutsedge; [1]): 0 | Nutsedge plant response rating (0 to 10 scale) (purple nutsedge; [2]): 0 | Nutsedge plant response rating (purple nutsedge; [3]): 0 | Plant response rating, Nutsedge (purple nutsedge; [4]): 10 | Nutsedge plant response rating (purple nutsedge; [5]): 0 | Nutsedge plant response rating (purple nutsedge; [6]): 0 | Plant response rating (0 to 10; 0 is no effect, 10 is complete control), Nutsedge (purple nutsedge; Rate 250 g/ha, Postemergence): 0 | Nutsedge plant response rating (purple nutsedge; [7]): 0
